Read-outs that look alike come from different tables or passages of the source.
Legend:
[1] = molecular target: EGFR Del19/T790M/C797S (Homo sapiens, UniProt P00533, C797S/DEL746-750/T790M); experiment: Biochemical EGFR kinase inhibition assay (Lance Ultra TR-FRET), triple mutant del19/T790M/C797S
In short: (§1)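 Enzyme reactions lasted 1 hour at room temperature with test compounds between 0.003 and 10 μM, followed by 10 mM EDTA quench.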

[2] = molecular target: EGFR wildtype (WT) (Homo sapiens, UniProt P00533); experiment: Biochemical EGFR kinase inhibition assay (Lance Ultra TR-FRET), wildtype
In short: as §1

[3] = molecular target: EGFR L858R/T790M/C797S (Homo sapiens, UniProt P00533, C797S/L858R/T790M); experiment: Biochemical EGFR kinase inhibition assay (Lance Ultra TR-FRET), triple mutant L858R/T790M/C797S
In short: as §1

[4] = molecular target: EGFR L858R/C797S (Homo sapiens, UniProt P00533, C797S/L858R); experiment: Biochemical EGFR kinase inhibition assay (Lance Ultra TR-FRET), double mutant L858R/C797S
In short: as §1

[5] = molecular target: EGFR Del19/C797S (Homo sapiens, UniProt P00533, C797S/DEL746-750); experiment: Biochemical EGFR kinase inhibition assay (Lance Ultra TR-FRET), double mutant del19/C797S
In short: as §1

[6] = IC50 Del19/T790M/C797S (nM), 100 μM ATP
[7] = Km ATP, read-out: IC50 Del19/T790M/C797S (nM) Km ATP
[8] = Km ATP, read-out: IC50 WT (nM) Km ATP
[9] = IC50 L858R/T790M/C797S (nM), 100 μM ATP
[10] = Km ATP, read-out: IC50 L858R/T790M/C797S (nM) Km ATP
[11] = IC50 L858R/C797S (nM), 100 μM ATP
[12] = Km ATP, read-out: IC50 L858R/C797S (nM) Km ATP
[13] = IC50 Del19/C797S (nM), 100 μM ATP
[14] = Km ATP, read-out: IC50 Del19/C797S (nM) Km ATP
[15] = ATP at Km, read-out: IC50 Del19/T790M/C797S (nM), Km ATP
[16] = ATP at Km, read-out: IC50 WT (nM), Km ATP
[17] = ATP at Km, read-out: IC50 L858R/T790M/C797S (nM), Km ATP
[18] = ATP at Km, read-out: IC50 L858R/C797S (nM), Km ATP
[19] = ATP at Km, read-out: IC50 Del19/C797S (nM), Km ATP

EGFR Del19/C797S, sequence (P00533 with tags, fused parts or gaps DEL746-750/C797S): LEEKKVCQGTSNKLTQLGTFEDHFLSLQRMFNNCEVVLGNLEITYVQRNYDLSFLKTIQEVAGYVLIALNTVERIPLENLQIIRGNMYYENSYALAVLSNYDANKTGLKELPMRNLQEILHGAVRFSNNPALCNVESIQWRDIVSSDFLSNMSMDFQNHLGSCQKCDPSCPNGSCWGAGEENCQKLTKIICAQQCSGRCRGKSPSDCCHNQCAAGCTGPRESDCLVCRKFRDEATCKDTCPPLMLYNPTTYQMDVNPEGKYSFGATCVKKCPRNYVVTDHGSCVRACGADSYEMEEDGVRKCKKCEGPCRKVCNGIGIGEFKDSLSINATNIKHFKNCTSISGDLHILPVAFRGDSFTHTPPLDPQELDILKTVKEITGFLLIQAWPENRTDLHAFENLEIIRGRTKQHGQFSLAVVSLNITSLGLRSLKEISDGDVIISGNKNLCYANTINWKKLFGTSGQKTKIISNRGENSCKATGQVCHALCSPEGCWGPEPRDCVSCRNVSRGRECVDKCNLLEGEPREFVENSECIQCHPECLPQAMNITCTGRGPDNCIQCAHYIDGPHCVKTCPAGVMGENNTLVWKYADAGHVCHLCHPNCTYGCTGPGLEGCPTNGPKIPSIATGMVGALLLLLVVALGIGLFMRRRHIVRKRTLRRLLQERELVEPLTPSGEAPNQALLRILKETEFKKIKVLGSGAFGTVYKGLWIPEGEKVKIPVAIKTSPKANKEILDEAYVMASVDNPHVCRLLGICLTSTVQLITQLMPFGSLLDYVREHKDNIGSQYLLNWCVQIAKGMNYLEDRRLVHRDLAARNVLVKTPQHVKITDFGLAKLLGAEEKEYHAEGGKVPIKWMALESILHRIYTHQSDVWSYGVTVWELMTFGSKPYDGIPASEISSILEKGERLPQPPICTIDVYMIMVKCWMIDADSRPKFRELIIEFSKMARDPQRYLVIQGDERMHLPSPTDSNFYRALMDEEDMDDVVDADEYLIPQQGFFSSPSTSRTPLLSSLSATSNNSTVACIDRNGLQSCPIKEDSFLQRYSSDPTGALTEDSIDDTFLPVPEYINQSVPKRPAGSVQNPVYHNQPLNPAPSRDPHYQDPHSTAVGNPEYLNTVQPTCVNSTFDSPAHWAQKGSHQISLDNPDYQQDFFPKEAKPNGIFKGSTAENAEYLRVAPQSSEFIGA
EGFR L858R/C797S, sequence (P00533 25-1210 C797S/L858R): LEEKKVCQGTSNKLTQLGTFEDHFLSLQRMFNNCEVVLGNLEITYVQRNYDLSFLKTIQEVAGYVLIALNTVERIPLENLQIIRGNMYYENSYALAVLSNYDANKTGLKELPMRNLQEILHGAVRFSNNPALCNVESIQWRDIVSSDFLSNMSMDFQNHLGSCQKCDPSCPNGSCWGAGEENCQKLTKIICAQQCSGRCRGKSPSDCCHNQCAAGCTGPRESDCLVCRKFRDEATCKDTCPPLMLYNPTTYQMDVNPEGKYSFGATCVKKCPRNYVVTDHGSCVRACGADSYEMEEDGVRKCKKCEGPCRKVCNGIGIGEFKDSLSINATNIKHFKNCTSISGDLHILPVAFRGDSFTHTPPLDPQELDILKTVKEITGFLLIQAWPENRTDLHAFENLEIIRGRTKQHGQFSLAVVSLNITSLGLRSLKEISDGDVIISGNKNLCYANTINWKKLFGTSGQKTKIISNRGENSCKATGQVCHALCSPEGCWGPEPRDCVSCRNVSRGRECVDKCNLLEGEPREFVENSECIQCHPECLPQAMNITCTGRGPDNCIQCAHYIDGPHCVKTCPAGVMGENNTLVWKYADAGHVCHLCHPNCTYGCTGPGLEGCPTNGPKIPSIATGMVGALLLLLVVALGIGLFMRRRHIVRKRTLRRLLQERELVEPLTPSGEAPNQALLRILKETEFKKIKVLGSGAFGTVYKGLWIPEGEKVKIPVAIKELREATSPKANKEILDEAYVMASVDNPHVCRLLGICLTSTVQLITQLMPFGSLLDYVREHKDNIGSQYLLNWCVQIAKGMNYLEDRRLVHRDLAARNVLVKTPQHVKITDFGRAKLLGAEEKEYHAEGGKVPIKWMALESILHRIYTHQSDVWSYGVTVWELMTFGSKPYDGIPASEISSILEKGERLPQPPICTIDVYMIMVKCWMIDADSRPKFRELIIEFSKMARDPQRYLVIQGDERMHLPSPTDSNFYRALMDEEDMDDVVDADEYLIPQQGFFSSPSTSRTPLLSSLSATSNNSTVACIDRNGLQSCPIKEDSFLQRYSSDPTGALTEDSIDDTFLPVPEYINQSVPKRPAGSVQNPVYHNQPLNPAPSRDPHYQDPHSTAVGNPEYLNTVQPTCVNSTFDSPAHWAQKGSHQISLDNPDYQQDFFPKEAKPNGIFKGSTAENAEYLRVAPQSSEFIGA
EGFR Del19/T790M/C797S, sequence (P00533 with tags, fused parts or gaps DEL746-750/T790M/C797S): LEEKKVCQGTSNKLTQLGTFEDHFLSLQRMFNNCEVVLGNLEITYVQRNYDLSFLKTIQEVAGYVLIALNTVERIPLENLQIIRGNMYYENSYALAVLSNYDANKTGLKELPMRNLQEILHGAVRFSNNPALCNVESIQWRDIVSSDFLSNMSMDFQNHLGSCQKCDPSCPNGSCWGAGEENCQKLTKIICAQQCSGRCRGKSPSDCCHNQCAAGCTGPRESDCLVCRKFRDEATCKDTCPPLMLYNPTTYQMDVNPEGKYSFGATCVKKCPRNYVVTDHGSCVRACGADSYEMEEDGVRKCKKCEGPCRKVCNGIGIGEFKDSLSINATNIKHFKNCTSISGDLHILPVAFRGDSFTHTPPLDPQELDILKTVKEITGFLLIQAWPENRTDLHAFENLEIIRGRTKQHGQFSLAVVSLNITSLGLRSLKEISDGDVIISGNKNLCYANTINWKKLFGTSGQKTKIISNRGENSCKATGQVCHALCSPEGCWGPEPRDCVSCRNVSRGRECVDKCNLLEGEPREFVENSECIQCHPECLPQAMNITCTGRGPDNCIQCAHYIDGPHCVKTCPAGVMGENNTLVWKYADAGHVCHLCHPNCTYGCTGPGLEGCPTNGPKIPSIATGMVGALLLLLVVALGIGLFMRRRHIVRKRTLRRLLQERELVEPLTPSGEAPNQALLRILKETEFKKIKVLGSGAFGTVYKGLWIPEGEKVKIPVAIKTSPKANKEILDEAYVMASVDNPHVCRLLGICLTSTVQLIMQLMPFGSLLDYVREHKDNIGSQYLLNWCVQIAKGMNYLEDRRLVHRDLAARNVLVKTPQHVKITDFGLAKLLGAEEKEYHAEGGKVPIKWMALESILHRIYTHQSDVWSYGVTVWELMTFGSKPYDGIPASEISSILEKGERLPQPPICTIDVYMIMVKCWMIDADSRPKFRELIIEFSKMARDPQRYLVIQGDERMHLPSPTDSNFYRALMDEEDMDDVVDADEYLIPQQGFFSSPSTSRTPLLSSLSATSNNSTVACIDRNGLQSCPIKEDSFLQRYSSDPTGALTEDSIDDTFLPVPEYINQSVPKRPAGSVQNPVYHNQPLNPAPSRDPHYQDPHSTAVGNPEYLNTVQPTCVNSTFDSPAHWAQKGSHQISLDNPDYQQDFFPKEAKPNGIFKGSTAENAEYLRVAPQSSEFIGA
EGFR L858R/T790M/C797S, sequence (P00533 25-1210 T790M/C797S/L858R): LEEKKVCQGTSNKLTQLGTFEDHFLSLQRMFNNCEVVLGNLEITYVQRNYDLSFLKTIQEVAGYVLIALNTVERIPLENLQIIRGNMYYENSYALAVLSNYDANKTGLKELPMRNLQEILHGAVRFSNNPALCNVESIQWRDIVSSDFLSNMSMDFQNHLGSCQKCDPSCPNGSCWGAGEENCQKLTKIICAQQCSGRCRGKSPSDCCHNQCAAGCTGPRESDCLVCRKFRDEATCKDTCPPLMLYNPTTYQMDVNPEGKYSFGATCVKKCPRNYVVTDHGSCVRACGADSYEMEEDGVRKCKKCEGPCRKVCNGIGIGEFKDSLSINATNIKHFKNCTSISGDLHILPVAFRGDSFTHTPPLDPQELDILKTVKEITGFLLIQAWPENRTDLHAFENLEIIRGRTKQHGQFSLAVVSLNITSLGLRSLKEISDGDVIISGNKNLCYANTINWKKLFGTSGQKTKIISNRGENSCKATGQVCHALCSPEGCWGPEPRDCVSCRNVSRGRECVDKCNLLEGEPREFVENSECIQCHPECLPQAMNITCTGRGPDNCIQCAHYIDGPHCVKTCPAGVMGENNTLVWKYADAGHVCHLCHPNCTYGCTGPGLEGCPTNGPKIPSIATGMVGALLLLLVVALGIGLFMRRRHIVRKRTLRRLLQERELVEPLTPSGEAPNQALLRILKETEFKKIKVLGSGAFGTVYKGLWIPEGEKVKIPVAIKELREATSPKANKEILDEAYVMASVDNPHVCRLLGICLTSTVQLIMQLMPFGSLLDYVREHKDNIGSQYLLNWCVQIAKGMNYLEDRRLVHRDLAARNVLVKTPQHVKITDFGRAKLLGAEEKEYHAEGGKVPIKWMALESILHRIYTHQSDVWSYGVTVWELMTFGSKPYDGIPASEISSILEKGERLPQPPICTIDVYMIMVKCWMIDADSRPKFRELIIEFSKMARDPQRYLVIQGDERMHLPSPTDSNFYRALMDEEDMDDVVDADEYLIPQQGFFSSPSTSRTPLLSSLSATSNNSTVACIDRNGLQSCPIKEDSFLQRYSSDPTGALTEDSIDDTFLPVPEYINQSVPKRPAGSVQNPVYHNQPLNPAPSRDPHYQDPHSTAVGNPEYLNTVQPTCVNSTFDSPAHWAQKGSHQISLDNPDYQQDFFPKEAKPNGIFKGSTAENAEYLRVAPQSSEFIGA

Row | IC50 [1, 6] [nM] | IC50 [1, 7] [nM] | IC50 ([2]; IC50 WT (nM), 100 μM ATP) [nM] | IC50 [2, 8] [nM] | IC50 [3, 9] [nM] | IC50 [3, 10] [nM] | IC50 [4, 11] [nM] | IC50 [4, 12] [nM] | IC50 [5, 13] [nM] | IC50 [5, 14] [nM] | IC50 ([1]; Km ATP, read-out: IC50 Del19/T790M/C797S (nM), Km ATP) [nM] | IC50 ([2]; Km ATP, read-out: IC50 WT (nM), Km ATP) [nM] | IC50 ([3]; Km ATP, read-out: IC50 L858R/T790M/C797S (nM), Km ATP) [nM] | IC50 ([4]; Km ATP, read-out: IC50 L858R/C797S (nM), Km ATP) [nM] | IC50 ([5]; Km ATP, read-out: IC50 Del19/C797S (nM), Km ATP) [nM] | IC50 [1, 15] [nM] | IC50 [2, 16] [nM] | IC50 [3, 17] [nM] | IC50 [4, 18] [nM] | IC50 [5, 19] [nM] | SMILES
1 | 2.2 | 1.9 | > 10000 | 260 | 18.2 | 2.5 | 372 | 18.3 | 64.8 | 43 |  |  |  |  |  |  |  |  |  |  | O=C1CCN(c2cc(Nc3ccnc(-c4cnn(S(=O)(=O)C5CC5)c4)n3)ncc2C#Cc2cnn(C3CCOCC3)c2)CC1 [Example 93, 1-(2-((2-(1-(Cyclopropylsulfonyl)-1H-pyrazol-4-yl)pyrimidin-4-yl)amino)-5-((1-(tetrahydro-2H-pyran-4-yl)-1H-pyrazol-4-yl)ethynyl)pyridin-4-yl)piperidin-4-one]
2 | 1.5 |  | > 10000 |  | 5.4 |  | 1170 |  | 58.7 |  | 2.4 | 114 | 2.6 | 32.6 | 32.5 |  |  |  |  |  | C[C@]1(O)CC[C@H](CNc2cc(Nc3ccnc(-c4cnn(S(=O)(=O)C5CC5)c4)n3)ncc2C#Cc2cnn(CCF)c2)CC1 [Example 380, (1 r,4r)-4-(((2-((2-(1-(Cyclopropylsulfonyl)-1H-pyrazol-4-yl)pyrimidin-4-yl)amino)-5-((1-(2-fluoroethyl)-1H-pyrazol-4-yl)ethynyl)pyridin-4-yl)amino)methyl)-1-methylcyclohexan-1-ol]
3 | 0.6 |  | 1270 |  | 0.5 |  | 6.6 |  | 0.7 |  |  |  |  |  |  | 0.5 | 2.2 | 0.2 | 0.9 | 0.4 | CC1(CO)CCN(c2cc(Nc3ccnc(-c4cnn(S(=O)(=O)C5CC5)c4)n3)ncc2C#Cc2ncc(CN3CCOCC3)cn2)CC1 [Example 193, (1-(2-((2-(1-(Cyclopropylsulfonyl)-1H-pyrazol-4-yl)pyrimidin-4-yl)amino)-5-((5-(morpholinomethyl)pyrimidin-2-yl)ethynyl)pyridin-4-yl)-4-methylpiperidin-4-yl)methanol]
4 | 1.8 | 1.8 | > 10000 | 86.5 | 5.9 | 1.7 | 162 | 9.2 | 25.1 | 18.3 |  |  |  |  |  |  |  |  |  |  | O=S(=O)(C1CC1)n1cc(-c2nccc(Nc3cc(N4CCC(F)CC4)c(C#Cc4cnn(C5CCOCC5)c4)cn3)n2)cn1 [Example 97, 2-(1-(Cyclopropylsulfonyl)-1H-pyrazol-4-yl)-N-(4-(4-fluoropiperidin-1-yl)-5-((1-(tetrahydro-2H-pyran-4-yl)-1H-pyrazol-4-yl)ethynyl)pyridin-2-yl)pyrimidin-4-amine]
5 | 1.2 |  | > 10000 |  | 2.4 |  | 83.4 |  | 23.1 |  |  |  |  |  |  |  |  |  |  |  | Cn1cc(C#Cc2cnc(Nc3ccnc(-c4cnn(S(=O)(=O)C5CC5)c4)n3)cc2N2CCC(NS(C)(=O)=O)CC2)cn1 [Example 63, N-(1-(2-((2-(1-(Cyclopropylsulfonyl)-1H-pyrazol-4-yl)pyrimidin-4-yl)amino)-5-((1-methyl-1H-pyrazol-4-yl)ethynyl)pyridin-4-yl)piperidin-4-yl)methanesulfonamide]
6 | 2.6 |  | 661 |  | 1.6 |  | 25.5 |  | 6.4 |  |  |  |  |  |  |  |  |  |  |  | COC1CCN(c2cc(Nc3ccnc(-c4cnn(S(=O)(=O)C5CC5)c4)n3)ncc2C#Cc2cnn(C)c2)CC1 [Example 15, 2-(1-(Cyclopropylsulfonyl)-1H-pyrazol-4-yl)-N-(4-(4-methoxypiperidin-1-yl)-5-((1-methyl-1H-pyrazol-4-yl)ethynyl)pyridin-2-yl)pyrimidin-4-amine]
7 | 1.4 | 0.6 | > 10000 | 19.2 | 0.7 | 0.1 |  | 1.7 | 2.6 | 1.1 |  |  |  |  |  |  |  |  |  |  | CC(C)n1cc(C#Cc2cnc(Nc3ccnc(-c4cnn(S(=O)(=O)C5CC5)c4)n3)cc2OC[C@H]2CC[C@H](CN(C)C)CC2)cn1 [Example 59, 2-(1-(Cyclopropylsulfonyl)-1H-pyrazol-4-yl)-N-(4-(((1r,4r)-4-((dimethylamino)methyl)cyclohexyl)methoxy)-5-((1-isopropyl-1H-pyrazol-4-yl)ethynyl)pyridin-2-yl)pyrimidin-4-amine]
8 | 2.6 |  | > 10000 |  | 3 |  | 57.8 |  | 3.5 |  |  |  |  |  |  | 2.4 | 29.4 | 1.1 | 8.6 | 4.2 | CC1(CO)CCN(c2cc(Nc3ccnc(-c4cnn(S(=O)(=O)C5CC5)c4)n3)ncc2C#Cc2cnn3c2CN(CC(F)F)CC3)CC1 [Example 151, (1-(2-((2-(1-(Cyclopropylsulfonyl)-1H-pyrazol-4-yl)pyrimidin-4-yl)amino)-5-((5-(2,2-difluoroethyl)-4,5,6,7-tetrahydropyrazolo[1,5-a]pyrazin-3-yl)ethynyl)pyridin-4-yl)-4-methylpiperidin-4-yl)methanol]
9 | 0.4 |  | 5190 |  | 3.9 |  | 24.1 |  | 1.8 |  |  |  |  |  |  |  |  |  |  |  | O=C(N1CCC(C#Cc2cnc(Nc3ccnc(-c4cnn(S(=O)(=O)C5CC5)c4)n3)cc2NC2CCC(O)CC2)C1)C(F)(F)F (stereo not drawn) [Example 414, 1-(3-((6-((2-(1-(Cyclopropylsulfonyl)-1H-pyrazol-4-yl)pyrimidin-4-yl)amino)-4-(((1 s, 4s)-4-hydroxycyclohexyl)amino)pyridin-3-yl)ethynyl)pyrrolidin-1-yl)-2,2,2-trifluoroethan-1-one]
10 | 2.9 |  | > 10000 |  | 11.4 |  | 213 |  | 46.9 |  |  |  |  |  |  |  |  |  |  |  | O=S(=O)(C1CC1)n1cc(-c2nccc(Nc3cc(N4CCC(O)CC4)c(C#Cc4ccc(N5CCOCC5)nc4)cn3)n2)cn1 [Example 215, 1-(2-((2-(1-(Cyclopropylsulfonyl)-1H-pyrazol-4-yl)pyrimidin-4-yl)amino)-5-((6-morpholinopyridin-3-yl)ethynyl)pyridin-4-yl)piperidin-4-ol]
11 | 0.5 |  | 3880 |  | 0.3 |  | 13.4 |  | 1.9 |  |  |  |  |  |  | 0.4 | 6.2 | 0.2 | 1.5 | 0.8 | CC1(CO)CCN(c2cc(Nc3ccnc(-c4cnn(S(=O)(=O)C5CC5)c4)n3)ncc2C#CC2CCOCC2)CC1 [Example 179, (1-(2-((2-(1-(Cyclopropylsulfonyl)-1H-pyrazol-4-yl)pyrimidin-4-yl)amino)-5-((tetrahydro-2H-pyran-4-yl)ethynyl)pyridin-4-yl)-4-methylpiperidin-4-yl)methanol]
12 | 1.9 |  | > 10000 |  | 2.1 |  | 145 |  | 19.2 |  |  |  |  |  |  | 1.9 | 17.6 | 0.6 | 5.3 | 10.3 | CC1(O)CCC(Nc2cc(Nc3ccnc(-c4cnn(S(=O)(=O)C5CC5)c4)n3)ncc2C#Cc2cnn(C3CC3(F)F)c2)CC1 (stereo not drawn) [Example 326, (1s,4s)-4-((2-((2-(1-(Cyclopropylsulfonyl)-1H-pyrazol-4-yl)pyrimidin-4-yl)amino)-5-((1-(2,2-difluorocyclopropyl)-1H-pyrazol-4-yl)ethynyl)pyridin-4-yl)amino)-1-methylcyclohexan-1-ol]
13 | 2.9 |  | > 10000 |  | 1.5 |  | 198 |  | 97.4 |  |  |  |  |  |  | 5.6 | 46.1 | 0.3 | 16.6 | 35.8 | CN(C)S(=O)(=O)n1cc(-c2nccc(Nc3cc(N4CCC(C)(CO)CC4)c(C#Cc4cnn(C(F)(F)F)c4)cn3)n2)cn1 [Example 273, 4-(4-((4-(4-(Hydroxymethyl)-4-methylpiperidin-1-yl)-5-((1-(trifluoromethyl)-1H-pyrazol-4-yl)ethynyl)pyridin-2-yl)amino)pyrimidin-2-yl)-N, N-dimethyl-1H-pyrazole-1-sulfonamide]
14 | 1.4 |  | 3090 |  | 1.1 |  | 9.2 |  | 3.3 |  |  |  |  |  |  |  |  |  |  |  | Cn1cc(C#Cc2cnc(Nc3ccnc(-c4cnn(S(=O)(=O)C5CC5)c4)n3)cc2N2CCC3(CC2)CC(C)(O)C3)cn1 [Example 13, 7-(2-((2-(1-(Cyclopropylsulfonyl)-1H-pyrazol-4-yl)pyrimidin-4-yl)amino)-5-((1-methyl-1H-pyrazol-4-yl)ethynyl)pyridin-4-yl)-2-methyl-7-azaspiro[3.5]nonan-2-ol]
